# ± gives the standard deviation.
# Assay: chemical recovery by SPE of plasma after PDMS sampling; higher = better extraction
# Details: pooled human plasma; extraction method: HLB SPE of plasma after PES; equilibration time (d): 1
# 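Also: over 400 spiked chemicals quantified by LC-HRMS or GC-HRMS via internal standard calibration, recovery relative to spike mix added to unspiked plasma extract to correct matrix effects.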
row,SMILES,chemical recovery by SPE of plasma
1,CCCNCCOc1c(Cl)cc(Cl)cc1Cl [Prochloraz BTS403-48],0.247 ± 0.057%
2,CCOP(=O)(OCC)OCC [Triethylphosphate],12.1 ± 7%
3,CCCCCCCCCCCC(=O)N(CCO)CCO [Lauryl diethanolamide],24.9 ± 2.9%
4,c1cc2c3c(c1)ccc1cccc(c13)C2 [4H-Cyclopenta(def)phenanthrene],1.81 ± 1.4%
5,CCCC1COC(Cn2cncn2)(c2ccc(Cl)cc2Cl)O1 (stereo unspecified) [Propiconazole],0.277 ± 0.24%
6,COC(=O)Nc1nc2cc(C(=O)c3ccccc3)ccc2[nH]1 [Mebendazole],18.4 ± 2.3%
7,Cc1cccc(C)c1N(Cn1cccn1)C(=O)C[S+](C)[O-] (stereo unspecified) [Metazachlor BH 479-11],59.7 ± 9%
8,COc1ccccc1Oc1c(NS(=O)(=O)c2ccc(C(C)(C)C)cc2)nc(-c2ncccn2)nc1OCCO [Bosentan],40.6 ± 4.4%
9,CCCc1nc2c(C)cc(-c3nc4ccccc4n3C)cc2n1Cc1ccc(-c2ccccc2C(=O)O)cc1 [Telmisartan],43.6 ± 3.4%
10,O=C1Nc2ccc(Cl)cc2C(c2ccccc2)=NC1O (stereo unspecified) [Oxazepam],29.1 ± 4%
11,O=Cc1ccccc1Nc1ccccc1Cl [2-(2-(Chlorophenyl)amino)benzaldehyde],0.712 ± 0.79%
12,CCCCCCCCn1sccc1=O [2-Octyl-4-isothiazolin-3-one],1.24 ± 0.64%
13,"Nc1ccc2c(n1)[nH]c1ccccc12 [2-Amino-9H-pyrido[2,3-b]indole (AalphaC)]",19.66 ± 0.18%
14,CCNc1nc(NCC)nc(SC)n1 [Simetryn],12.9 ± 2.2%
15,Cc1nc2n(c(=O)c1CCN1CCC(c3noc4cc(F)ccc34)CC1)CCCC2 [Risperidone],4.71 ± 0.66%
16,CSc1nnc(C(C)(C)C)c(=O)n1N [Metribuzin],10.9 ± 1.3%
17,Cc1cc(O)cc(C)c1[S+](C)[O-] (stereo unspecified) [Methiocarb-sulfoxide phenol],66.4 ± 8.3%
18,Cc1nc(N(C)C)nc(OC(=O)N(C)C)c1C [Pirimicarb],6.05 ± 0.55%
19,CCCN(CCC)c1c([N+](=O)[O-])cc(S(N)(=O)=O)cc1[N+](=O)[O-] [Oryzalin],39.2 ± 5.2%

row,SMILES,chemical recovery by SPE of plasma
1,CC(C)Nc1nc(N)nc(Cl)n1 [Desethylatrazine],30.4 ± 3.7%
2,CN[C@H]1CC[C@@H](c2ccc(Cl)c(Cl)c2)c2ccccc21 [Sertraline],0.296 ± 0.11%
3,c1ccc2ncccc2c1 [Quinoline],0.053 ± 0.092%
4,O=C(NC(=O)c1c(F)cccc1F)Nc1ccc(Cl)cc1 [Diflubenzuron],8.71 ± 3.2%
5,O=c1ccc2ccccc2[nH]1 [2-Hydroxyquinoline],36.8 ± 5.3%
6,C1=Cc2ccccc2Nc2ccccc21 [Iminostilbene],3.69 ± 2.4%
7,Brc1ccc(Oc2c(Br)cc(Br)cc2Br)c(Br)c1 [BDE100],2.2 ± 2%
8,CCC(=O)O[C@]1(C(=O)CCl)[C@@H](C)C[C@H]2[C@@H]3CCC4=CC(=O)C=C[C@]4(C)[C@@]3(F)[C@@H](O)C[C@@]21C [Clobetasol propionate],5.08 ± 8.8%
9,Fc1ccc([C@@H]2CCNC[C@H]2COc2ccc3c(c2)OCO3)cc1 [Paroxetine],2.65 ± 0.22%
10,COCCN(C(=O)C(=O)O)c1c(C)cccc1C [Dimethachlor OA],60.2 ± 9.2%
11,Oc1cc(Cl)ccc1Oc1ccc(Cl)cc1Cl [Triclosan],24.8 ± 8.3%
12,O=P(OCCCl)(OCCCl)OCCCl [Tris(2-chloroethyl)phosphate],15 ± 1.6%
13,"CN1CCN(C)C1=O [1,3-Dimethyl-2-imidazolidinone]",4.06 ± 4.7%
14,CN(C)CCOC(c1ccccc1)c1ccccc1 [Diphenhydramine],0.353 ± 0.014%
15,CN1C(=O)CC[C@H]1c1cccnc1 [Cotinine],6.83 ± 6.3%
16,Cc1nc2ccccc2s1 [2-Methylbenzothiazole],0.0827 ± 0.14%
17,CN/C(=N\[N+](=O)[O-])NCc1cnc(Cl)s1 [Clothianidin],59.2 ± 6.8%
18,O=C1NCCN1Cc1ccc(Cl)nc1 [Imidacloprid-urea],50.1 ± 6.5%

# Same assay, conditions: pooled human plasma; extraction method: HLB SPE of plasma after PES; equilibration time (d): 3
row,SMILES,chemical recovery by SPE of plasma
1,CCCNCCOc1c(Cl)cc(Cl)cc1Cl [Prochloraz BTS403-48],0.287 ± 0.11%
2,CCOP(=O)(OCC)OCC [Triethylphosphate],15.8 ± 2.1%
3,CCCCCCCCCCCC(=O)N(CCO)CCO [Lauryl diethanolamide],18.5 ± 3.1%
4,c1cc2c3c(c1)ccc1cccc(c13)C2 [4H-Cyclopenta(def)phenanthrene],2 ± 0.34%
5,CCCC1COC(Cn2cncn2)(c2ccc(Cl)cc2Cl)O1 (stereo unspecified) [Propiconazole],0.384 ± 0.17%
6,COC(=O)Nc1nc2cc(C(=O)c3ccccc3)ccc2[nH]1 [Mebendazole],14 ± 1.4%
7,Cc1cccc(C)c1N(Cn1cccn1)C(=O)C[S+](C)[O-] (stereo unspecified) [Metazachlor BH 479-11],57.3 ± 4.7%
8,COc1ccccc1Oc1c(NS(=O)(=O)c2ccc(C(C)(C)C)cc2)nc(-c2ncccn2)nc1OCCO [Bosentan],48.7 ± 5.1%
9,CCCc1nc2c(C)cc(-c3nc4ccccc4n3C)cc2n1Cc1ccc(-c2ccccc2C(=O)O)cc1 [Telmisartan],46.2 ± 1%
10,O=C1Nc2ccc(Cl)cc2C(c2ccccc2)=NC1O (stereo unspecified) [Oxazepam],30.4 ± 2.4%
11,O=Cc1ccccc1Nc1ccccc1Cl [2-(2-(Chlorophenyl)amino)benzaldehyde],0.276 ± 0.48%
12,CCCCCCCCn1sccc1=O [2-Octyl-4-isothiazolin-3-one],1.03 ± 0.27%
13,"Nc1ccc2c(n1)[nH]c1ccccc12 [2-Amino-9H-pyrido[2,3-b]indole (AalphaC)]",14.4 ± 1.5%
14,CCNc1nc(NCC)nc(SC)n1 [Simetryn],5.73 ± 0.83%
15,Cc1nc2n(c(=O)c1CCN1CCC(c3noc4cc(F)ccc34)CC1)CCCC2 [Risperidone],3.9 ± 0.9%
16,CSc1nnc(C(C)(C)C)c(=O)n1N [Metribuzin],15.3 ± 1.4%
17,Cc1cc(O)cc(C)c1[S+](C)[O-] (stereo unspecified) [Methiocarb-sulfoxide phenol],66.7 ± 4.1%
18,Cc1nc(N(C)C)nc(OC(=O)N(C)C)c1C [Pirimicarb],6.09 ± 1%
19,CCCN(CCC)c1c([N+](=O)[O-])cc(S(N)(=O)=O)cc1[N+](=O)[O-] [Oryzalin],33.9 ± 3%

row,SMILES,chemical recovery by SPE of plasma
1,CC(C)Nc1nc(N)nc(Cl)n1 [Desethylatrazine],26.3 ± 3.2%
2,CN[C@H]1CC[C@@H](c2ccc(Cl)c(Cl)c2)c2ccccc21 [Sertraline],0.321 ± 0.11%
3,c1ccc2ncccc2c1 [Quinoline],0.00565 ± 0.0098%
4,O=C(NC(=O)c1c(F)cccc1F)Nc1ccc(Cl)cc1 [Diflubenzuron],8.73 ± 0.29%
5,O=c1ccc2ccccc2[nH]1 [2-Hydroxyquinoline],30.9 ± 3.2%
6,C1=Cc2ccccc2Nc2ccccc21 [Iminostilbene],4 ± 1.1%
7,Brc1ccc(Oc2c(Br)cc(Br)cc2Br)c(Br)c1 [BDE100],1.42 ± 0.25%
8,CCC(=O)O[C@]1(C(=O)CCl)[C@@H](C)C[C@H]2[C@@H]3CCC4=CC(=O)C=C[C@]4(C)[C@@]3(F)[C@@H](O)C[C@@]21C [Clobetasol propionate],7.02 ± 6.3%
9,Fc1ccc([C@@H]2CCNC[C@H]2COc2ccc3c(c2)OCO3)cc1 [Paroxetine],3.11 ± 0.29%
10,COCCN(C(=O)C(=O)O)c1c(C)cccc1C [Dimethachlor OA],69.4 ± 2.3%
11,Oc1cc(Cl)ccc1Oc1ccc(Cl)cc1Cl [Triclosan],23.5 ± 2%
12,O=P(OCCCl)(OCCCl)OCCCl [Tris(2-chloroethyl)phosphate],15 ± 1.8%
13,"CN1CCN(C)C1=O [1,3-Dimethyl-2-imidazolidinone]",4.29 ± 3.7%
14,CN(C)CCOC(c1ccccc1)c1ccccc1 [Diphenhydramine],0.464 ± 0.19%
15,CN1C(=O)CC[C@H]1c1cccnc1 [Cotinine],2.33 ± 0.49%
16,Cc1nc2ccccc2s1 [2-Methylbenzothiazole],0.253 ± 0.11%
17,CN/C(=N\[N+](=O)[O-])NCc1cnc(Cl)s1 [Clothianidin],62.2 ± 5.3%
18,O=C1NCCN1Cc1ccc(Cl)nc1 [Imidacloprid-urea],50.2 ± 4.6%

# Same assay, conditions: pooled human plasma; extraction method: HLB SPE of plasma after PES; equilibration time (d): 6
row,SMILES,chemical recovery by SPE of plasma
1,CCCNCCOc1c(Cl)cc(Cl)cc1Cl [Prochloraz BTS403-48],0.165 ± 0.0069%
2,CCOP(=O)(OCC)OCC [Triethylphosphate],6.74 ± 1.1%
3,CCCCCCCCCCCC(=O)N(CCO)CCO [Lauryl diethanolamide],13.2 ± 2.9%
4,c1cc2c3c(c1)ccc1cccc(c13)C2 [4H-Cyclopenta(def)phenanthrene],1.85 ± 0.12%
5,CCCC1COC(Cn2cncn2)(c2ccc(Cl)cc2Cl)O1 (stereo unspecified) [Propiconazole],0.117 ± 0.052%
6,COC(=O)Nc1nc2cc(C(=O)c3ccccc3)ccc2[nH]1 [Mebendazole],8.71 ± 0.66%
7,Cc1cccc(C)c1N(Cn1cccn1)C(=O)C[S+](C)[O-] (stereo unspecified) [Metazachlor BH 479-11],49.7 ± 6.9%

# Reference: the supplement of paper PMC10702517
